According to PubChem BioAssay (NCI):
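96-well plates; 48 h exposure; 5 concentrations. Endpoints by linear interpolation between flanking doses. Not reached: highest tested concentration assigned. GI50 = concentration required for 50% inhibition of growth. TGI: concentration producing complete growth inhibition.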

Legend:
Assay in all cases: NCI tumour cell line growth inhibition, 48 h
786-0 renal = tested on: 786-0 renal
T-47D breast = tested on: T-47D breast
SF-268 CNS = tested on: SF-268 CNS
MOLT-4 leukemia = tested on: MOLT-4 leukemia
UACC-62 melanoma = tested on: UACC-62 melanoma
HOP-62 NSCLC = tested on: HOP-62 NSCLC
MCF7 breast = tested on: MCF7 breast
SNB-75 CNS = tested on: SNB-75 CNS
SK-MEL-5 melanoma = tested on: SK-MEL-5 melanoma
HCC-2998 colon = tested on: HCC-2998 colon
KM12 colon = tested on: KM12 colon
OVCAR-4 ovarian = tested on: OVCAR-4 ovarian
HCT-116 colon = tested on: HCT-116 colon
M14 melanoma = tested on: M14 melanoma
A549 NSCLC = tested on: A549 NSCLC
COLO 205 colon = tested on: COLO 205 colon
SF-295 CNS = tested on: SF-295 CNS
HL-60(TB) leukemia = tested on: HL-60(TB) leukemia
HT29 colon = tested on: HT29 colon
NCI/ADR-RES ovarian = tested on: NCI/ADR-RES ovarian
RPMI-8226 leukemia = tested on: RPMI-8226 leukemia
SW-620 colon = tested on: SW-620 colon
HCT-15 colon = tested on: HCT-15 colon
CCRF-CEM leukemia = tested on: CCRF-CEM leukemia
SK-MEL-2 melanoma = tested on: SK-MEL-2 melanoma
A498 renal = tested on: A498 renal
MALME-3M melanoma = tested on: MALME-3M melanoma
RXF 393 renal = tested on: RXF 393 renal
SR leukemia = tested on: SR leukemia
ACHN renal = tested on: ACHN renal
DU-145 prostate = tested on: DU-145 prostate
OVCAR-5 ovarian = tested on: OVCAR-5 ovarian
PC-3 prostate = tested on: PC-3 prostate
TK-10 renal = tested on: TK-10 renal
CAKI-1 renal = tested on: CAKI-1 renal
SNB-19 CNS = tested on: SNB-19 CNS
MDA-MB-231 breast = tested on: MDA-MB-231 breast
OVCAR-8 ovarian = tested on: OVCAR-8 ovarian
UACC-257 melanoma = tested on: UACC-257 melanoma
EKVX NSCLC = tested on: EKVX NSCLC
K-562 leukemia = tested on: K-562 leukemia
MDA-MB-435 = tested on: MDA-MB-435
LOX IMVI melanoma = tested on: LOX IMVI melanoma
U251 CNS = tested on: U251 CNS
UO-31 renal = tested on: UO-31 renal
OVCAR-3 ovarian = tested on: OVCAR-3 ovarian
NCI-H23 lung = tested on: NCI-H23 lung
NCI-H460 lung = tested on: NCI-H460 lung
BT-549 breast = tested on: BT-549 breast
SN12C renal = tested on: SN12C renal
SF-539 CNS = tested on: SF-539 CNS
HS 578T breast = tested on: HS 578T breast
IGROV1 ovarian = tested on: IGROV1 ovarian
SK-MEL-28 melanoma = tested on: SK-MEL-28 melanoma
NCI-H522 lung = tested on: NCI-H522 lung
SK-OV-3 ovarian = tested on: SK-OV-3 ovarian
HOP-92 NSCLC = tested on: HOP-92 NSCLC
NCI-H226 lung = tested on: NCI-H226 lung

With `Nc1nc(N)c(C=Nc2ccc(Br)cc2)c(Nc2ccc(Br)cc2)n1` the GI50 (786-0 renal) was 11.1 µM, the TGI (786-0 renal) was 23 µM and the GI50 (T-47D breast) was 4.22 µM. It also gave a TGI (T-47D breast) of 18.4 µM, a GI50 (SF-268 CNS) of 8.16 µM and a TGI (SF-268 CNS) of 27.1 µM. It also gave a GI50 (MOLT-4 leukemia) of 10.7 µM, a TGI (MOLT-4 leukemia) of 28.5 µM and a GI50 (UACC-62 melanoma) of 12.1 µM. It also gave a TGI (UACC-62 melanoma) of 24.4 µM, a GI50 (HOP-62 NSCLC) of 10.5 µM and a TGI (HOP-62 NSCLC) of 22.5 µM. It also gave a GI50 (MCF7 breast) of 2.57 µM, a TGI (MCF7 breast) of 15.1 µM and a GI50 (SNB-75 CNS) of 5.02 µM. For the same compound, the TGI (SNB-75 CNS) was 18.6 µM, the GI50 (SK-MEL-5 melanoma) was 13.5 µM and the TGI (SK-MEL-5 melanoma) was 26.3 µM. It also gave a GI50 (HCC-2998 colon) of 3.89 µM, a TGI (HCC-2998 colon) of 14 µM and a GI50 (KM12 colon) of 4.22 µM. The TGI (KM12 colon) was 18.4 µM, the GI50 (OVCAR-4 ovarian) was 10.6 µM and the TGI (OVCAR-4 ovarian) was 25 µM. For the same compound, the GI50 (HCT-116 colon) was 6.46 µM, the TGI (HCT-116 colon) was 19.2 µM and the GI50 (M14 melanoma) was 9.59 µM. The TGI (M14 melanoma) was 21.4 µM, the GI50 (A549 NSCLC) was 12.4 µM and the TGI (A549 NSCLC) was 29.6 µM. For the same compound, the GI50 (COLO 205 colon) was 14.5 µM, the TGI (COLO 205 colon) was 34.6 µM and the GI50 (SF-295 CNS) was 11.3 µM. The TGI (SF-295 CNS) was 38.5 µM, the GI50 (HL-60(TB) leukemia) was 15.6 µM and the TGI (HL-60(TB) leukemia) was 49.2 µM. For the same compound, the GI50 (HT29 colon) was 5.81 µM, the TGI (HT29 colon) was greater than 100 µM and the GI50 (NCI/ADR-RES ovarian) was 5.54 µM. The TGI (NCI/ADR-RES ovarian) was 26.3 µM, the GI50 (RPMI-8226 leukemia) was 16.6 µM and the TGI (RPMI-8226 leukemia) was 38.7 µM. For the same compound, the GI50 (SW-620 colon) was 14.1 µM, the TGI (SW-620 colon) was 99.1 µM and the GI50 (HCT-15 colon) was 7.44 µM. The TGI (HCT-15 colon) was 34.4 µM, the GI50 (CCRF-CEM leukemia) was 9.3 µM and the TGI (CCRF-CEM leukemia) was 26.2 µM. For the same compound, the GI50 (SK-MEL-2 melanoma) was 10.2 µM, the TGI (SK-MEL-2 melanoma) was 23 µM and the GI50 (A498 renal) was 10.6 µM. For the same compound, the TGI (A498 renal) was 22.4 µM, the GI50 (MALME-3M melanoma) was 17.8 µM and the TGI (MALME-3M melanoma) was 39.7 µM. It also gave a GI50 (RXF 393 renal) of 2.89 µM, a TGI (RXF 393 renal) of 13.6 µM and a GI50 (SR leukemia) of 2.61 µM. It also gave a TGI (SR leukemia) of 10.2 µM, a GI50 (ACHN renal) of 8.96 µM and a TGI (ACHN renal) of 28 µM. For the same compound, the GI50 (DU-145 prostate) was 12.3 µM, the TGI (DU-145 prostate) was 28.6 µM and the GI50 (OVCAR-5 ovarian) was 9.98 µM. It also gave a TGI (OVCAR-5 ovarian) of 21.5 µM, a GI50 (PC-3 prostate) of 8.34 µM and a TGI (PC-3 prostate) of 26.4 µM. The GI50 (TK-10 renal) was 13 µM, the TGI (TK-10 renal) was 37.6 µM and the GI50 (CAKI-1 renal) was 3.45 µM. The TGI (CAKI-1 renal) was 18.7 µM, the GI50 (SNB-19 CNS) was 12.4 µM and the TGI (SNB-19 CNS) was 32.4 µM. It also gave a GI50 (MDA-MB-231 breast) of 7.36 µM, a TGI (MDA-MB-231 breast) of 28.3 µM and a GI50 (OVCAR-8 ovarian) of 15.2 µM. It also gave a TGI (OVCAR-8 ovarian) of 40.7 µM, a GI50 (UACC-257 melanoma) of 14.7 µM and a TGI (UACC-257 melanoma) of 30.7 µM. The GI50 (EKVX NSCLC) was 10.5 µM, the TGI (EKVX NSCLC) was 24.1 µM and the GI50 (K-562 leukemia) was 2.91 µM. For the same compound, the TGI (K-562 leukemia) was 8.68 µM, the GI50 (MDA-MB-435) was 10.5 µM and the TGI (MDA-MB-435) was 27.6 µM. For the same compound, the GI50 (LOX IMVI melanoma) was 3.01 µM, the TGI (LOX IMVI melanoma) was 16.4 µM and the GI50 (U251 CNS) was 12 µM. The TGI (U251 CNS) was 30.1 µM, the GI50 (UO-31 renal) was 6.55 µM and the TGI (UO-31 renal) was 28.1 µM. The GI50 (OVCAR-3 ovarian) was 11.8 µM, the TGI (OVCAR-3 ovarian) was 25.3 µM and the GI50 (NCI-H23 lung) was 10 µM. It also gave a TGI (NCI-H23 lung) of 27.3 µM, a GI50 (NCI-H460 lung) of 4.39 µM and a TGI (NCI-H460 lung) of 20.1 µM. For the same compound, the GI50 (BT-549 breast) was 12.9 µM, the TGI (BT-549 breast) was 25.5 µM and the GI50 (SN12C renal) was 8.19 µM. The TGI (SN12C renal) was 33.6 µM, the GI50 (SF-539 CNS) was 12.1 µM and the TGI (SF-539 CNS) was 24.4 µM. The GI50 (HS 578T breast) was 8.96 µM, the TGI (HS 578T breast) was 26.8 µM and the GI50 (IGROV1 ovarian) was 8.72 µM. For the same compound, the TGI (IGROV1 ovarian) was 46.2 µM, the GI50 (SK-MEL-28 melanoma) was 12.3 µM and the TGI (SK-MEL-28 melanoma) was 24.7 µM. The GI50 (NCI-H522 lung) was 8.2 µM, the TGI (NCI-H522 lung) was 33.2 µM and the GI50 (SK-OV-3 ovarian) was 15.1 µM. It also gave a TGI (SK-OV-3 ovarian) of 28.4 µM.
`CCOC(=O)C[n+]1cccc(C2(c3cc4ccccc4[nH]3)OCCO2)c1` showed a TGI (786-0 renal) greater than 100 µM, a TGI (T-47D breast) greater than 100 µM and a TGI (SF-268 CNS) greater than 100 µM. It also gave a TGI (MOLT-4 leukemia) greater than 100 µM, a TGI (UACC-62 melanoma) greater than 100 µM and a TGI (HOP-62 NSCLC) greater than 100 µM. The TGI (MCF7 breast) was greater than 100 µM, the TGI (SNB-75 CNS) was greater than 100 µM and the TGI (SK-MEL-5 melanoma) was greater than 100 µM. It also gave a TGI (HCC-2998 colon) greater than 100 µM, a TGI (KM12 colon) greater than 100 µM and a TGI (OVCAR-4 ovarian) greater than 100 µM. The TGI (HCT-116 colon) was greater than 100 µM, the TGI (M14 melanoma) was greater than 100 µM and the TGI (A549 NSCLC) was greater than 100 µM. For the same compound, the TGI (COLO 205 colon) was greater than 100 µM, the TGI (SF-295 CNS) was greater than 100 µM and the TGI (HL-60(TB) leukemia) was greater than 100 µM. The TGI (HT29 colon) was greater than 100 µM, the TGI (NCI/ADR-RES ovarian) was greater than 100 µM and the TGI (RPMI-8226 leukemia) was greater than 100 µM. It also gave a TGI (SW-620 colon) greater than 100 µM, a TGI (HCT-15 colon) greater than 100 µM and a TGI (CCRF-CEM leukemia) greater than 100 µM. It also gave a TGI (SK-MEL-2 melanoma) greater than 100 µM, a TGI (HOP-92 NSCLC) greater than 100 µM and a TGI (A498 renal) greater than 100 µM. For the same compound, the TGI (MALME-3M melanoma) was greater than 100 µM, the TGI (RXF 393 renal) was greater than 100 µM and the TGI (NCI-H226 lung) was greater than 100 µM. It also gave a TGI (SR leukemia) greater than 100 µM, a TGI (ACHN renal) greater than 100 µM and a TGI (DU-145 prostate) greater than 100 µM. The TGI (OVCAR-5 ovarian) was greater than 100 µM, the TGI (PC-3 prostate) was greater than 100 µM and the TGI (TK-10 renal) was greater than 100 µM. For the same compound, the TGI (CAKI-1 renal) was greater than 100 µM, the TGI (SNB-19 CNS) was greater than 100 µM and the TGI (MDA-MB-231 breast) was greater than 100 µM. It also gave a TGI (OVCAR-8 ovarian) greater than 100 µM, a TGI (UACC-257 melanoma) greater than 100 µM and a TGI (EKVX NSCLC) greater than 100 µM. For the same compound, the TGI (K-562 leukemia) was greater than 100 µM, the TGI (MDA-MB-435) was greater than 100 µM and the TGI (LOX IMVI melanoma) was greater than 100 µM. For the same compound, the TGI (U251 CNS) was greater than 100 µM, the TGI (UO-31 renal) was greater than 100 µM and the TGI (OVCAR-3 ovarian) was greater than 100 µM. It also gave a TGI (NCI-H23 lung) greater than 100 µM, a TGI (NCI-H460 lung) greater than 100 µM and a TGI (BT-549 breast) greater than 100 µM. For the same compound, the TGI (SF-539 CNS) was greater than 100 µM, the TGI (HS 578T breast) was greater than 100 µM and the TGI (IGROV1 ovarian) was greater than 100 µM. It also gave a TGI (SK-MEL-28 melanoma) greater than 100 µM and a TGI (SK-OV-3 ovarian) greater than 100 µM.
